Values quoted from earlier work as cited in patent US20210315194A1, “MOSQUITO ATTRACTANT FORMULATIONS AND USES THEREOF” (ACTIVE SCENT AB, priority 2018, published 2021).

Test system: wild egg-laying Culex mosquitoes
Conditions: traps baited with 1 mg of the compound

CCCCCCCCC=O [nonanal]
attraction to baited traps: attract
